Among the data in patent US20190119282A1, “IMIDAZOPYRIDAZINES USEFUL AS INHIBITORS OF THE PAR-2 SIGNALING PATHWAY” (Vertex Pharmaceuticals Incorporated, priority 2013, published 2019) are IC50 values, retold here.

As a reminder, the IC50 is the concentration that gives 50% inhibition.

Structures are written as SMILES. Bounds are passed on as bounds.

The target in assay [1] is T1, PAR2 (HT-29 cells, SLIGKV activation) (Homo sapiens, UniProt P55085).
T1 construct: host or cells: HT-29 cells
T1 sequence (P55085 26-397): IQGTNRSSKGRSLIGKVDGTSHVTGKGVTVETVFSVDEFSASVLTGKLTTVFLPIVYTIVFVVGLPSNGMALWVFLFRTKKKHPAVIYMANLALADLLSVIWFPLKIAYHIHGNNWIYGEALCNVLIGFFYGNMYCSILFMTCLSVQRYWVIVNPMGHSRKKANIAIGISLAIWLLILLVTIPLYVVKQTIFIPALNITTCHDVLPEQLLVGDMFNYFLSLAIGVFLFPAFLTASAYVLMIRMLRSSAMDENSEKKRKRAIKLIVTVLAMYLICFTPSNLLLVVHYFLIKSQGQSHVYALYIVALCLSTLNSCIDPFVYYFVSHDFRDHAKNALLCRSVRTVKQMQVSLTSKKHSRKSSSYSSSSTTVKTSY
As to the kind of experiment: Ca FLIPR TETRA assay, ANTAGONIST mode, stimulation with 8 μM SLIGKV. The settings on record: HT-29 cells, antagonist mode, stimulation with 8 μM SLIGKV. The class given is cell-based. The procedure, abridged: (§1)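 Antagonist-mode FLIPR Tetra Ca2+ readout: after 30 min r.t. compound pre-incubation, HT-29 cells are challenged with trypsin (3.1 U/mL final), SLIGKV (8 μM), thrombin (1 U/mL) or UTP (0.6 μM). Cells were plated overnight in 1% FBS medium and dye-loaded with Calcium 5; an initial read checks compound agonism.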

Assay [2] has as its target T2, PAR2 (HT-29 cells, trypsin activation) (Homo sapiens, UniProt P55085).
T2 construct: host or cells: HT-29 cells
T2 sequence (P55085 26-397): T1 sequence (P55085 26-397)
As to the kind of experiment: Ca FLIPR TETRA assay, ANTAGONIST mode, stimulation with 3.1 U/mL trypsin. The settings on record: HT-29 cells, antagonist mode, stimulation with 3.1 U/mL trypsin. The class given is cell-based. The procedure, abridged: as §1

The subject of assay [3] is Thrombin-stimulated Ca2+ response in HT-29 cells. The assay is described as follows: Ca FLIPR TETRA assay, ANTAGONIST mode, stimulation with 1 U/mL Thrombin. In kind it is cell-based, human. As to conditions: Homo sapiens; HT-29 cells, antagonist mode, stimulation with 1 U/mL Thrombin. The method in brief:
as §1

Assay [4] deals with UTP-stimulated Ca2+ response in HT-29 cells. The assay is described as follows: Ca FLIPR TETRA assay, ANTAGONIST mode, stimulation with 0.6 μM UTP. In kind it is cell-based, human. The settings on record: Homo sapiens; HT-29 cells, antagonist mode, stimulation with 0.6 μM UTP. The method in brief:
as §1

For `CC(C)(C)c1cc(-c2ccc(F)cc2)nn2cc(C(=O)N3CCN(C(=O)c4ccn[nH]c4=O)CC3(C)C)nc12` [Compound I-356], the IC50 was 28 nM in assay [1], 15 nM in assay [2], over 1000 nM in assay [3] and over 1000 nM in assay [4].

Consider `CC(C)(C)c1cc(-c2ccc(F)cc2)nn2cc(C(=O)N3CCN(C(=O)c4n[nH]c(=O)[nH]4)CC3(C)C)nc12` [Compound I-357], for which the IC50 in assay [1] was 3.3 nM; in assay [2] it was 4.4 nM; in assay [3], over 1000 nM; in assay [4], 890 nM.

As to `CC(C)(C)c1cc(-c2ccc(C(F)(F)F)cc2)nn2cc(C(=O)N3CCN(c4c[nH]cn4)C(=O)C3(C)C)nc12` [Compound I-358], the IC50 in assay [1] is 11.3 nM; in assay [2] it was 4.4 nM; in assay [3] it was over 1000 nM; in assay [4], over 1000 nM.

Take `CC(C)(C)c1cc(-c2ccc(F)cc2)nn2cc(C(=O)N3CCN(c4cn[nH]n4)C(=O)C3(C)C)nc12` [Compound I-359]: the IC50 in assay [1] is 1 nM; in assay [2] it was 1.1 nM; in assay [3], over 1000 nM; in assay [4], over 1000 nM.

Consider `Cc1ccc(-c2cc(C(C)(C)C)c3nc(C(=O)N4CCN(c5c[nH]cn5)C(=O)C4(C)C)cn3n2)cc1F` [Compound I-360], for which the IC50 in assay [1] was 4.6 nM; in assay [2], 3 nM; in assay [3] it was over 1000 nM; in assay [4] it was over 1000 nM.

Consider `CC(C)(C)c1cc(-c2ccc(Cl)cc2)nn2cc(C(=O)N3CCNC(=O)C3(C)C)nc12` [Compound I-361], for which the IC50 in assay [1] was 2.7 nM; in assay [2] it was 2.2 nM; in assay [3] it was over 1000 nM; in assay [4], over 1000 nM.

Consider `CC(C)(F)c1cc(-c2ccc(F)cc2)nn2cc(C(=O)N3CCNC(=O)C3(C)C)nc12` [Compound I-362], for which the IC50 in assay [1] was 13 nM; in assay [2], 31 nM; in assay [3], over 1000 nM; in assay [4] it was over 1000 nM.

Turning to `CC(C)c1cc(-c2ccc(F)c(Cl)c2)nn2cc(C(=O)N3CCNC(=O)C3(C)C)nc12` [Compound I-363], the IC50 in assay [1] was 5.4 nM; in assay [2] it was 2.8 nM; in assay [3], over 1000 nM; in assay [4], over 1000 nM.

Consider `Cc1ccc(-c2cc(C(C)(C)C)c3nc(C(=O)N4CCN(c5cn[nH]c5)C(=O)C4(C)C)cn3n2)cc1` [Compound I-364], for which the IC50 was 1.5 nM in assay [1], 1.7 nM in assay [2], over 1000 nM in assay [3] and over 1000 nM in assay [4].

For the molecule `Cc1ccc(-c2cc(C(C)(C)C)c3nc(C(=O)N4CCN(c5cn[nH]c5)C(=O)C4(C)C)cn3n2)cc1F` [Compound I-365], the IC50 is 1.1 nM in assay [1], 1.5 nM in assay [2], over 1000 nM in assay [3] and over 1000 nM in assay [4].

With `Cc1nc(N2CCN(C(=O)c3cn4nc(-c5ccc(F)cc5)cc(C(C)(C)C)c4n3)C(C)(C)C2=O)c[nH]1` [Compound I-367], the IC50 in assay [1] is 2.6 nM; in assay [2], 4.2 nM; in assay [3], over 1000 nM; in assay [4] it was over 1000 nM.

For `Cc1ccc(-c2cc(C(C)(C)C)c3nc(C(=O)N4CCN(c5c[nH]c(C)n5)C(=O)C4(C)C)cn3n2)cc1` [Compound I-368], the IC50 in assay [1] was 5.2 nM; in assay [2] it was 6.8 nM; in assay [3], over 1000 nM; in assay [4], over 1000 nM.

Consider `Cc1nc(N2CCN(C(=O)c3cn4nc(-c5ccc(C)c(F)c5)cc(C(C)(C)C)c4n3)C(C)(C)C2=O)c[nH]1` [Compound I-369], for which the IC50 was 5.4 nM in assay [1], 7.3 nM in assay [2], over 1000 nM in assay [3] and over 1000 nM in assay [4].

For the molecule `CC(C)c1cc(-c2ccc(C(F)(F)F)cc2)nn2cc(C(=O)N3CCN(C(=O)c4ncccn4)CC3(C)C)nc12` [Compound I-370], the IC50 in assay [1] is 7.7 nM; in assay [2] it was 10.4 nM; in assay [3], over 1000 nM; in assay [4], over 1000 nM.
